Laboratory results published in patent publication US10106523B2, “Amide compound” (ASTELLAS PHARMA INC., priority 2014, dated 2018).

Target: rat EP4 receptor (Rattus norvegicus, UniProt P43114)
Assay: Evaluation test of rat EP4 receptor affinity ([3H]PGE2 binding, membrane fraction of HEK-293 cells)
Parameters: expressed in transfected cells; host or cells: HEK-293 (ATCC CRL-1573), transient
Conditions: 0.3 nmol/L [3H]PGE2, rat EP4 cell membrane fraction, room temperature 1 hour; read-out: Ki value with respect to the rat EP4 receptor
Experimental: Test Example 1: Evaluation Test of Rat EP4 Receptor Affinity
Construction of Rat EP4 Receptor Expressing Vector:
A rat EP4 receptor gene (GenBank accession No.: NM_032076.1) was transfected into an expression vector pcDNA3.1-V5-His-TOPO (Invitrogen Inc.).
Transient Expression of Rat EP4 Receptor:
The expression vector of a rat EP4 receptor was transfected into an HEK-293 cell (ATCC No.: CRL-1573). The transfection was carried out according to an appended instruction, using Lipofectoamine (registered trademark) 2000 reagent (Invitrogen Inc.). After the transfection, the cells were cultured in an α-MEM culture medium for 20 to 24 hours.
Preparation of Membrane Fraction:
The culture medium was removed by aspiration, 10 mL of cooled phosphate buffered saline (PBS) was added thereto per 15 cm dish, and the cells were scraped using a cell scraper (Sumitomo Bakelite). […]
[^3H]PGE2 and a cell membrane fraction were diluted with an assay buffer (50 mmol/L HEPES-NaOH, 10 mmol/L MgCl2, pH 7.5), and the test compound and unlabeled PGE2 (Cayman) were diluted with DMSO and the assay buffer. […] The radioactivity was measured using a TopCount (Perkin Elmer). […] The specific binding amount was determined by subtracting the non-specific binding amount from the total binding amount. The Ki value was calculated according to a standard method.

Chain of rat EP4 receptor (P43114 whole entry): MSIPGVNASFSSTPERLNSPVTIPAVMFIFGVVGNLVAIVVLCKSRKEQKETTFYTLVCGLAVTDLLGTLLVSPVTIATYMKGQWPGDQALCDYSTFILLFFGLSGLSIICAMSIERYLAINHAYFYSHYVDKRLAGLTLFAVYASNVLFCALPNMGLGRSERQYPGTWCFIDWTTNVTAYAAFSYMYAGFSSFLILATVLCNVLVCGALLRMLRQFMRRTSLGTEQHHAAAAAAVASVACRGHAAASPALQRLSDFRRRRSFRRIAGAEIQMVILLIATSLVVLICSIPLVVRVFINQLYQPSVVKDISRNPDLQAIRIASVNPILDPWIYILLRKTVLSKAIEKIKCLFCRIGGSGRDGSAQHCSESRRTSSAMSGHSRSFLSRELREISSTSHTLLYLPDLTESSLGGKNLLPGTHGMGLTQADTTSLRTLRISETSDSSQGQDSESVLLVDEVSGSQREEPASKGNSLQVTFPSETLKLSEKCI

- Ki: 0.874 nM
Structure (SMILES): Cc1nn(Cc2cc3ccccc3cn2)c(C(=O)N[C@@H](C)c2ccc(C(=O)O)cc2)c1Br [Compound A, 4-[(1S)-1-({[4-bromo-1-(isoquinolin-3-ylmethyl)-3-methyl-1H-pyrazol-5-yl]carbonyl}amino)ethyl]benzoic acid]
